Experimental data: patent publication USRE47689E1, “Compounds for treating spinal muscular atrophy” (PTC Therapeutics, Inc., priority 2011, dated 2019)
Read-outs that look alike come from different tables or passages of the source.

Experiments:
[1] = system: SMN2 minigene (full length SMN2 minigene mRNA containing SMN2 exon 7); assay: SMN2 minigene mRNA splicing RT-qPCR assay in cultured cells; assay type: cell-based, human; conditions: Homo sapiens, HEK293-H, read-out: EC1.5x for production of full length SMN2 mRNA
How it was run: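 Read-out: full-length (exon 7-included) SMN2 minigene mRNA by multiplex RT-qPCR with GAPDH, efficiency-corrected (1+E)^−Ct, GAPDH-normalized and divided by vehicle. Stably transfected HEK293H cells, 24 h compound exposure, duplicates per concentration. Value is EC1.5x, reported as star ranges.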

Smn protein = Smn protein assay in cultured cells (SMN HTRF); assay type: cell-based, human; conditions: for EC1.5x (concentration giving 1.5-fold Smn protein increase): read-out: EC1.5x for Smn protein expression
How it was run: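 Lysates in RIPA with protease inhibitors are incubated overnight at room temperature with HTRF anti-SMN antibodies. EC1.5x is derived from fold increase in ΔF over vehicle.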

[2] = HEK293H cells stably transfected with SMN2-A minigene, 24 hours, 7-point concentration curve, 1.5-fold relative to vehicle-treated cells
[3] = SMA Type 1 patient fibroblast cells (GM03813), 48 hours, 7-point concentration curve, SMN HTRF, concentration producing 1.5 times Smn protein vs DMSO vehicle control
[4] = SMA patient fibroblast cells, 48 hours, 7-point concentration data, fold increase relative to vehicle control (SMN HTRF)

SMILES | EC (1.5-fold) [1, 2] [µM] | EC1.5x (concentration giving 1.5-fold Smn protein increase) (Smn protein; [3]) [nM] | maximum fold (Fold) increase of Smn protein (Smn protein; [4]) | EC (1.5-fold) ([1]; 24 h) [µM] | maximum fold (Fold) increase of Smn protein (Smn protein) | EC1.5x (concentration giving 1.5-fold Smn protein increase) (Smn protein) [nM]
CCN1[C@H](C)CN(c2ccc3cc(-c4cn5cc(C)ncc5n4)c(=O)oc3c2)C[C@@H]1C [Compound 797, 7-[(3R,5S)-4-ethyl-3,5-dimethylpiperazin-1-yl]-3-(6-methylimidazo[1,2-a]pyrazin-2-yl)-2H-chromen-2-one] | < 0.1 | < 300 | **** (fold increase between >1.5 and ≤1.65) | – | – | –
Cc1cc2cc(-c3cc4ccc(N5CCN(C6CC6)CC5)cc4oc3=O)oc2c(C)n1 [Compound 798, 7-(4-cyclopropylpiperazin-1-yl)-3-(5,7-dimethylfuro[2,3-c]pyridin-2-yl)-2H-chromen-2-one] | 0.1 to 0.3 | 300 to 1000 | **** (fold increase between >1.5 and ≤1.65) | – | – | –
Cc1cn2cc(-c3cc4ccc(C5=CCN(C)CC5)cc4oc3=O)nc2c(C)n1 [Compound 800, 3-(6,8-dimethylimidazo[1,2-a]pyrazin-2-yl)-7-(1-methyl-1,2,3,6-tetrahydropyridin-4-yl)-2H-chromen-2-one] | – | – | – | < 0.1 | ***** (key: *: maximum fold increase of ≤1.2; **: fold increase between >1.2 and ≤1.35; ***: fold increase between >1.35 and ≤1.5; ****: fold increase between >1.5 and ≤1.65; *****: fold increase >1.65) | < 300
Cc1cn2cc(-c3cc4ccc(N5CCN[C@@H](C(C)C)C5)cc4oc3=O)nc2c(C)n1 [Compound 808, 3-(6,8-dimethylimidazo[1,2-a]pyrazin-2-yl)-7-[(3S)-3-(propan-2-yl)piperazin-1-yl]-2H-chromen-2-one] | < 0.1 | < 300 | **** (fold increase between >1.5 and ≤1.65) | – | – | –
Cc1cn2cc(-c3cc4ccc(N5CCN(C)[C@@H](C(C)C)C5)cc4oc3=O)nc2c(C)n1 [Compound 809, 3-(6,8-dimethylimidazo[1,2-a]pyrazin-2-yl)-7-[(3S)-4-methyl-3-(propan-2-yl)piperazin-1-yl]-2H-chromen-2-one] | 0.3 to 1 | 1000 to 3000 | **** (fold increase between >1.5 and ≤1.65) | – | – | –
CCN1CCN(c2ccc3cc(-c4cn5cc(C)nc(C)c5n4)c(=O)oc3c2)C[C@@H]1C(C)C [Compound 810, 3-(6,8-dimethylimidazo[1,2-a]pyrazin-2-yl)-7-[(3S)-4-ethyl-3-(propan-2-yl)piperazin-1-yl]-2H-chromen-2-one] | 0.3 to 1 | 1000 to 3000 | **** (fold increase between >1.5 and ≤1.65) | – | – | –
Cc1cn2cc(-c3cc4ccc(N5CCN(C(C)C)[C@H](C)C5)cc4oc3=O)cc2c(C)n1 [Compound 813, 3-(1,3-dimethylpyrrolo[1,2-a]pyrazin-7-yl)-7-[(3R)-3-methyl-4-(propan-2-yl)piperazin-1-yl]-2H-chromen-2-one] | < 0.1 | < 300 | **** (fold increase between >1.5 and ≤1.65) | – | – | –
Cc1cc2cc(-c3cc4ccc(N5CCN(CC6CC6)CC5)cc4oc3=O)oc2c(C)n1 [Compound 816, 7-[4-(cyclopropylmethyl)piperazin-1-yl]-3-(5,7-dimethylfuro[2,3-c]pyridin-2-yl)-2H-chromen-2-one] | < 0.1 | 300 to 1000 | **** (fold increase between >1.5 and ≤1.65) | – | – | –
Cc1cc2sc(-c3cc4ccc(N5CCNCC5)cc4oc3=O)cc2c(C)n1 [Compound 817, 3-(4,6-dimethylthieno[3,2-c]pyridin-2-yl)-7-(piperazin-1-yl)-2H-chromen-2-one] | < 0.1 | – | ** (fold increase between >1.2 and ≤1.35) | – | – | –
Cc1cc2sc(-c3cc4ccc(N5CCN(C)CC5)cc4oc3=O)cc2c(C)n1 [Compound 819, 3-(4,6-dimethylthieno[3,2-c]pyridin-2-yl)-7-(4-methylpiperazin-1-yl)-2H-chromen-2-one] | < 0.1 | – | *** (fold increase between >1.35 and ≤1.5) | – | – | –
